Here are results for 1 compound from publication PMC10215143, “D- and N-Methyl Amino Acids for Modulating the Therapeutic Properties of Antimicrobial Peptides and Lipopeptides” (Antibiotics, 2023).

Data set [1] concerns Gram (+) bacteria. How it is done: (§1) The MIC against bacterial strains was determined by the modified broth microtiter dilution method, following the procedures proposed by R.E.W. Hancock Laboratory for testing antimicrobial peptides. The target strains Escherichia coli ATCC 35218, Pseudomonas aeruginosa ATCC 27853, Enterococcus faecalis ATCC 29212, and Staphylococcus aureus ATCC 25923 belong to the American Type Culture Collection (ATCC). The Methicillin-Resistant Staphylococcus aureus BSF FBCB1313 strain (MRSA) was provided by the Clinical Bacteriology Section of FBCB-UNL. All strains were activated by culture for 24 h at 37 °C in Mueller-Hinton Broth (MHB) (Biokar Diagnostics, Cedex, France). Each inoculum was taken and adjusted to a cellular concentration of 5 × 10^5 colony-forming units (CFU)/mL in diluted MHB. All the peptides were dissolved in bovine serum albumin buffer with the addition of 0.01% acetic acid; 100 µL of each inoculum was added to 11 µL of peptide solution in serial 2-fold dilutions and were incubated for 18–24 h at 37 °C. The MIC was the lowest peptide concentration that inhibited visible growth of each bacterial strain. The test was conducted in triplicate.
(§2) The TI is defined as the relationship between the concentration that caused 50% of hemolysis (HC50) or a 50% reduction in HeLa cell viability and the MIC. Thus, higher TI values indicate greater antimicrobial specificity. […] The average MIC for each peptide against different microorganism groups was used to calculate the TI value.

Data set [2] relates to Gram (−) bacteria. How it is done:
as §1, §2

Data set [3] has as its system C. albicans PEEC 2. In kind it is cell-based, Candida albicans. The note with it: PEEC 2, 24 h. How it is done:
(§3) Each inoculum was taken and the cellular concentration was adjusted to 2 × 10^3 CFU/mL in Sabouraud Dextrose Broth (SDB) (Biokar Diagnostics, Cedex, France). Next, 50 µL of these inocula was added to 50 µL of peptide solution in serial 2-fold dilutions. […] […] The test was conducted in triplicate.

The test system of data set [4] is S. aureus RM * SA1 (Methicillin-resistant Staphylococcus aureus). The note with it: S. aureus RM * SA1 (MRSA).
The subject of data set [5] is chymotrypsin.
Procedure: (§5) The enzymatic stability of the peptides and lipopeptides was determined by measuring residual antimicrobial activity using the agar diffusion method [42]. To this end, 60 µL of the peptide (treated and untreated) in phosphate buffer (0.1 mM pH: 5.5) was added to a 7 mm well on an agar plate previously seeded with 1 mL of a fresh culture of S. aureus ATCC 25923. The plates were incubated for between 18 and 24 h at 37 °C, and then the inhibition halo diameter was measured. The test was conducted in duplicate.
Data set [6] deals with S. aureus ATCC 25923. It counts as cell-based, Staphylococcus aureus. The note with it: S. aureus ATCC 25923. The method, then:
(§4) The test was conducted in triplicate.

In data set [7] the test system is E. coli ATCC 35218. In kind it is cell-based, Escherichia coli. The note with it: ATCC 35218, 24 h. How it is done: as §4
The test system of data set [8] is Human erythrocytes. The data set is described as follows: Hemolysis assay. The note with it: human erythrocytes 0.4% (v/v), 37 °C, 60 min, 6.25 to 400 µM. In kind it is cell-based. How it is done: Hemolytic activity was determined using red blood cells and the hemoglobin released was measured at 405 nm. The percentage of hemolysis corresponding to the synthetic compounds is shown in Figure 1 while the HC50 values are provided in Table 3. […] Substitutions by N-methyl and D-amino acids reduced the hemolytic activity of the peptides and lipopeptides. […] For all the peptides and most of the lipopeptides, the HC50 values exceeded 400 μM. Indeed, the HC50 values were lower only for C10:0-A2(9-NMeLys) and C10:0-A2, which were around 300 and 200 μM, respectively.
Erythrocyte lysis was determined using the following previously optimized protocols. Human erythrocytes from a healthy voluntary donor were isolated by centrifugation (3000 rpm for 10 min) after washing three times with Physiological Solution (PS). Erythrocyte solutions were prepared at a concentration of 0.4% (v/v) in PS. Test tubes containing 200 µL of erythrocyte solution were incubated at 37 °C for 60 min with 200 µL of peptide solution at concentrations ranging from 6.25 to 400 µM. After centrifugation at 3000 rpm for 5 min, supernatant absorbance was measured at 405 nm. Lysis induced by 1% Triton X-100 was taken as a 100% reference value.

The test system of data set [9] is E. faecalis ATCC 29212. In kind it is cell-based, Enterococcus faecalis. The note with it: E. faecalis ATCC 29212. How it is done: as §4
Data set [10] concerns C. tropicalis DBFIQ 3. It counts as cell-based, Candida tropicalis. The note with it: DBFIQ 3, 24 h. The method, then:
as §3

In data set [11] the test system is P. aeruginosa ATCC 27853. It counts as cell-based, Pseudomonas aeruginosa. The note with it: ATCC 27853, 24 h. How it is done:
as §4

Data set [12] concerns Yeast. The method, then: Each inoculum was taken and the cellular concentration was adjusted to 2 × 10^3 CFU/mL in Sabouraud Dextrose Broth (SDB) (Biokar Diagnostics, Cedex, France). Next, 50 µL of these inocula was added to 50 µL of peptide solution in serial 2-fold dilutions. […] The MIC was considered the lowest peptide concentration that inhibited visible growth of each yeast strain. The test was conducted in triplicate.
as §2

Data set [13] has as its system trypsin. The note with it: after 7 h of treatment.
Procedure: as §5
For data set [14], the system named is HeLa cells. The note with it: 24 h. How it is done: We assessed the cytotoxicity of the compounds synthesized using HeLa cells.
The 3–4,5-dimethylthiazol-2,5-biphenyl tetrazolium bromide (MTT) cell viability assay was used to assess the cytotoxic activity of synthetic compounds against the human HeLa line. HeLa cells were seeded in 96-well plates at 1 × 10^5 cells/well, in which the peptide solution was added at different concentrations (3.125–400 μM) for 24 h of incubation. Next, MTT reagent (Sigma-Aldrich, St. Louis, MO, USA) was added, and the cells were incubated for 2 h. Then, 100 μL of dimethylsulfoxide (DMSO) was added to each well to dissolve formazan crystals, and the plates were read at 595 nm.

The mark [15] stands for this setting: first value of the cell, a single value holds for HC50 and IC50 (400 µM used).

Converted amounts (≈) assume the structure as drawn. Where a SMILES comes first, the peptide text is derived from it. [ ]: non-standard residue; d: D form. The star is where a group is joined. Decanoyl = CCCCCCCCCC(=O)*

What is called MIC is the lowest concentration found to suppress growth. Read a low MIC as greater potency. One may read the IC50 as the midpoint of a concentration-inhibition curve. Take `CCCCCCCCCC(=O)N[C@H](C(=O)N[C@H](CCCCN)C(=O)N[C@@H](CCC(N)=O)C(=O)N[C@H](C(=O)N[C@H](CCCCN)C(=O)N[C@H](CCCCN)C(=O)N[C@@H](CC(C)C)C(=O)N[C@@H](Cc1ccccc1)C(=O)N[C@H](CCCCN)C(=O)N[C@H](CCCCN)C(N)=O)C(C)C)[C@@H](C)CC` [C10:0-A2(dK), C10:0-IdKQVdKdKLFdKdK-NH2] (Decanoyl-I[dK]QV[dK][dK]LF[dK][dK]-NH2): the “MIC Average Bacteria Gram (+)” value in [1] (average over Gram (+) strains) was above 90.6 µM. In addition, the “TI Bacteria Gram (+), HC50/MIC average” value in data set [1] (setting [15]) was below 4.4. For the same compound, the “MIC Average Bacteria Gram (−)” value in data set [2] (average over Gram (−) strains) turned out to be 12.1 µM (≈ 17.1 µg/mL). Further, the “TI Bacteria Gram (−), HC50/MIC average” value in data set [2] (setting [15]) stood at 33.1. Further, the MIC in data set [3] is on record as 90.6 µM (≈ 128 µg/mL); in data set [4], above 90.6 µM; in data set [6], above 90.6 µM; in data set [7], 22.6 µM (≈ 31.9 µg/mL); in data set [9], above 90.6 µM; in [10], 181.2 µM (≈ 256 µg/mL). The MIC in data set [11] turned out to be 1.6 µM (≈ 2.26 µg/mL). The same compound showed a retained antimicrobial activity in data set [5] (after 3 h of treatment) of 75%. Also, in data set [5] (after more than 3 h of treatment, in words), the residual antimicrobial activity result is on record as “total loss of activity”. In addition, the “HC50 ± SD” value in data set [8] is given as above 400 µM. The “MIC Average Yeast” value in data set [12] (24 h) was found to be 135.9 µM (≈ 192 µg/mL). For the same compound, the “TI Yeast, HC50/MIC average” value in data set [12] (setting [15]) is recorded as 2.9. Also, the “retained inhibition activity against S. aureus strain ATCC 25923” value in data set [13] was 80%. In data set [14], this compound showed a half-inhibitory concentration (IC50) above 400 µM.
